Measurements taken from US9789082B2, “Somatostatin receptor subtype 4 (SSTR4) agonists” (Centrexion Therapeutics Corporation, priority 2013, dated 2017).
Like-named read-outs stand apart in the source and are kept apart here.

Key:
human SSTR3 = human SSTR3 (Homo sapiens (Human), UniProt P32745); test: Radioligand binding assay, CHO cell membranes expressing recombinant human SSTR3
From the text: (§1) Radioligand Binding Assays
(§2) Method Description for Binding Assays with Human Somatostatin Receptors by Use of CHO Cell Membranes Expressing Recombinant Human SSTR1 or Human SSTR2 or Human SSTR3 or Human SSTR4 or Human SSTR5
(§3) Receptor binding assays refer to a technique in which labeled receptor ligands are used to detect binding to a receptor. In competition experiments test compounds, which are not labeled, compete with the binding side of a labeled ligand. The displacement of the labeled ligand by the test compound leads to a decreased signal.
(§4) For the binding experiments 200 μL of membrane homogenate from one of the following protein amounts is used: hSSTR1 (40 μg/well); hSSTR2 (25 μg/well); hSSTR3 (1.5 μg/well); hSSTR4 (0.5 μg/well); hSSTR5 (25 μg/well). […] The incubation is terminated by filtration with ice cold NaCl 0.9% through polyethyleneimine treated (0.3%) GF/B glass fiber filters using a cell harvester. The protein-bound radioactivity is measured in a suitable reader. The non-specific binding is defined as radioactivity bound in the presence of 1 μM Somatostatin-14 during the incubation period.
(§5) The analysis of the concentration-binding curves is performed by computer-assisted nonlinear least square curve fitting method using the model of one receptor binding site.
(§6) Selectivity data was obtained with the aid of the above described radioligand binding assays.

[1] = Metabolic stability in pooled human liver microsomes (half-life); type: in vitro ADME; settings: 1 μM test compound; for half-life at 1 μM: pooled human liver microsomes, pH 7.6, 37° C., read-out: Half-life t1/2; for Half-life t1/2: 37° C.
Description: The metabolic stability of the compounds according to the invention may be investigated as follows:
The metabolic degradation of the test compound is assayed at 37° C. with pooled human liver microsomes. The final incubation volume of 100 μl per time point contains TRIS buffer pH 7.6 at room temperature (0.1 M), magnesium chloride (5 mM), microsomal protein (1 mg/mL) and the test compound at a final concentration of 1 μM. Following a short preincubation period at 37° C., the reactions are initiated by addition of beta-nicotinamide adenine dinucleotide phosphate, reduced form (NADPH, 1 mM), and terminated by transferring an aliquot into solvent after different time points. After centrifugation (10000 g, 5 min), an aliquot of the supernatant is assayed by LC-MS/MS for the amount of parent compound. The half-life is determined by the slope of the semi-logarithmic plot of the concentration-time profile.

human SSTR2 = human SSTR2 (Homo sapiens (Human), UniProt P30874); test: Radioligand binding assay, CHO cell membranes expressing recombinant human SSTR2
From the text: as §1, §2, §3, §4, §5, §6

human SSTR5 = human SSTR5 (Homo sapiens (Human), UniProt P35346); test: Radioligand binding assay, CHO cell membranes expressing recombinant human SSTR5
From the text: as §1, §2, §3, §4, §5, §6

human SSTR4 = human SSTR4 (Homo sapiens (Human), UniProt P31391); test: Radioligand binding assay, CHO cell membranes expressing recombinant human SSTR4
From the text: as §1, §2, §3, §4, §5, §6

[2] = biological target: human Somatostatin 4 receptor (SSTR4) (Homo sapiens (Human), UniProt P31391); test: cAMP assay with human somatostatin 4 receptor (hSSTR4 expressing H4 cells); type: cell-based
human SSTR1 = human SSTR1 (Homo sapiens (Human), UniProt P30872); test: Radioligand binding assay, CHO cell membranes expressing recombinant human SSTR1
From the text: as §1, §2, §3, §4, §5, §6

[3] = cAMP assay, read-out: SSTR4 agonism EC50

Sequence of human Somatostatin 4 receptor (SSTR4) (P31391 whole entry): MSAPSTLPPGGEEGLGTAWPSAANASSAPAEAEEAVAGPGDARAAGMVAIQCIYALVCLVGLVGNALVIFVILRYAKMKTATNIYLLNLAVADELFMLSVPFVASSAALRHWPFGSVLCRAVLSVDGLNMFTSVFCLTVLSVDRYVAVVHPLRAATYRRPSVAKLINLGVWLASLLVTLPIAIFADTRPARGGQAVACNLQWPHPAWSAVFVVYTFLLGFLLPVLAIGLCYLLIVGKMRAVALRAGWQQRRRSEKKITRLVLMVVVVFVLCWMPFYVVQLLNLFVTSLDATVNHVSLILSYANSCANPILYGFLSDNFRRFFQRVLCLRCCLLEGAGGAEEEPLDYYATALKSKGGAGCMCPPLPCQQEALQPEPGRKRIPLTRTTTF
Sequence of human SSTR4 (P31391 whole entry): as above
Sequence of human SSTR5 (P35346 whole entry): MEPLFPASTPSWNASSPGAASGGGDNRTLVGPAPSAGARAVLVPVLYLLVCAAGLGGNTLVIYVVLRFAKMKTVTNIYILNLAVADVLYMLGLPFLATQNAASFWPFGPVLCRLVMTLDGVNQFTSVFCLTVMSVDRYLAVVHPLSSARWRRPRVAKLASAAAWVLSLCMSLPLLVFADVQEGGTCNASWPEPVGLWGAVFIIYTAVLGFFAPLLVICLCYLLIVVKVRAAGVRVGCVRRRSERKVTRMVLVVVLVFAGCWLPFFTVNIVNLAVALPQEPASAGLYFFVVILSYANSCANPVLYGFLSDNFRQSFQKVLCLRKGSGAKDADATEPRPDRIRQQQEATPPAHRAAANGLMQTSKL
Sequence of human SSTR2 (P30874 whole entry): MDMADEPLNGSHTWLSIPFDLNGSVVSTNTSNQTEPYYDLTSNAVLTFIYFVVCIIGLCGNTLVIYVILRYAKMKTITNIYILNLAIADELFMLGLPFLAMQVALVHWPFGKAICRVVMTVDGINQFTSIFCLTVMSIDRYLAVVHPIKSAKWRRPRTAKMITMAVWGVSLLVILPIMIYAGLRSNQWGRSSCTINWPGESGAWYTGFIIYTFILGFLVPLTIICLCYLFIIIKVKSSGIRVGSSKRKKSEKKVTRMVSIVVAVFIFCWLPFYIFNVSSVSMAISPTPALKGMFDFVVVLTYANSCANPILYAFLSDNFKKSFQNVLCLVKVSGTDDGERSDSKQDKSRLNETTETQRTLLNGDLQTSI
Sequence of human SSTR1 (P30872 whole entry): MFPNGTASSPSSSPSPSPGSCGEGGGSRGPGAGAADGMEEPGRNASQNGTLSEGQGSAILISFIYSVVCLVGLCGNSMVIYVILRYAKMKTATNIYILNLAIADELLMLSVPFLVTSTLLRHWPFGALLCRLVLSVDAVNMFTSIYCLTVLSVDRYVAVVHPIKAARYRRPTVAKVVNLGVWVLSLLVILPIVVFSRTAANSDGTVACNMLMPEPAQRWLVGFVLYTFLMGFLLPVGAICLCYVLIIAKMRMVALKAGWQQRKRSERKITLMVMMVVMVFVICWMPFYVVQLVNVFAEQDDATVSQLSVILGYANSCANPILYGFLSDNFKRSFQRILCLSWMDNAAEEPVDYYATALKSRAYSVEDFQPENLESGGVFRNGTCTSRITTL
Sequence of human SSTR3 (P32745 whole entry): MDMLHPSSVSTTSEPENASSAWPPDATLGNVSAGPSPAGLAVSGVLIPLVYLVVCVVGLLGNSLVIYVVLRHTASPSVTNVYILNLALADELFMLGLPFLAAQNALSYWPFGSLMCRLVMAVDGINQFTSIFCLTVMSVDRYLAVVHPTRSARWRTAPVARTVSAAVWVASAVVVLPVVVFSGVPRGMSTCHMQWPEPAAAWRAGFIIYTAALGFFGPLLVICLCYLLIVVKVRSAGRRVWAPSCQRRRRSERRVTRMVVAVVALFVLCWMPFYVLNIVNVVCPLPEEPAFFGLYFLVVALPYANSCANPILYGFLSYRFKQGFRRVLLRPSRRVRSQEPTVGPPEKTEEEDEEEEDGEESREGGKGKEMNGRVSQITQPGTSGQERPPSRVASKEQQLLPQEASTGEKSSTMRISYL

| Half-life t1/2 [1] | Structure (SMILES) | Ki (human SSTR3) | half-life at 1 μM [1] | Ki (human SSTR2) | Ki (human SSTR5) | Ki (human SSTR4) | EC50 [2, 3] | Ki (human SSTR1) | EC50 ([2]; SSTR4 agonism EC50, cAMP assay) |
| --- | --- | --- | --- | --- | --- | --- | --- | --- | --- |
| – | CC(C)(NC(=O)[C@H]1[C@@H]2CNC[C@@H]21)c1nc2ccc(Cl)cc2[nH]1.Cl [Example 11] | > 8580 nM | > 2.17 h | > 9590 nM | > 9850 nM | 106 nM | 8.1 nM | > 8910 nM | – |
| – | CC(C)(NC(=O)[C@H]1[C@@H]2CNC[C@@H]21)c1ccnc2ccccc12.Cl [Example 21] | > 8580 nM | > 2.17 h | > 9590 nM | > 9850 nM | 10.8 nM | 0.7 nM | > 8910 nM | – |
| – | Cc1cc2ccccc2c(C(C)(C)NC(=O)[C@H]2[C@@H]3CNC[C@@H]32)n1.Cl [Example 22] | – | > 2.17 h | > 9590 nM | > 9850 nM | 3.7 nM | 0.4 nM | 848 nM | – |
| – | CC(C)(NC(=O)[C@H]1[C@@H]2CNC[C@@H]21)c1nccc2ccccc12.Cl [Example 24] | > 8650 nM | > 2.17 h | > 9610 nM | > 9860 nM | 2.9 nM | – | 2820 nM | 0.5 nM |
| – | Cc1cccnc1C(C)(C)NC(=O)[C@H]1[C@@H]2CNC[C@@H]21.Cl.Cl [Example 25] | > 8640 nM | > 2.17 h | > 9610 nM | > 9860 nM | 114 nM | – | > 8960 nM | 14.8 nM |
| – | Cc1ccccc1OCC(C)(C)NC(=O)[C@H]1[C@@H]2CNC[C@@H]21.Cl [Example 40] | > 8630 nM | > 2.17 h | > 9600 nM | > 9850 nM | 37.1 nM | 5 nM | > 9760 nM | – |
| – | Cc1cccnc1OCC(C)(C)NC(=O)[C@H]1[C@@H]2CNC[C@@H]21 [Example 47] | > 8620 nM | > 2.17 h | > 9600 nM | > 9850 nM | 39.9 nM | 3.7 nM | > 9150 nM | – |
| – | Cn1nc(C(C)(C)NC(=O)[C@H]2[C@@H]3CNC[C@@H]32)c2ccccc21 [Example 49] | > 8620 nM | > 2.17 h | > 9600 nM | > 9860 nM | 4.5 nM | 0.4 nM | 4540 nM | – |
| – | CC(C)(COc1nccc2ccccc12)NC(=O)[C@H]1[C@@H]2CNC[C@@H]21 [Example 56] | > 8630 nM | > 2.17 h | > 9610 nM | > 9850 nM | 100 nM | 5.5 nM | 3460 nM | – |
| – | CC(C)(COc1cnccc1C(F)(F)F)NC(=O)[C@H]1[C@@H]2CNC[C@@H]21 [Example 63] | > 7070 nM | > 2.17 h | > 7880 nM | > 8080 nM | 68.9 nM | – | > 7510 nM | 4.1 nM |
| – | Cc1cc2cccnc2c(C(C)(C)NC(=O)[C@H]2[C@@H]3CNC[C@@H]32)n1 [Example 78] | > 8710 nM | > 2.17 h | > 9630 nM | > 9860 nM | 97.2 nM | 3.2 nM | 6640 nM | – |
| – | Cc1ncc(C(C)(C)NC(=O)[C@H]2[C@@H]3CNC[C@@H]32)c2ccccc12 [Example 80] | > 8710 nM | > 2.17 h | > 9630 nM | > 9860 nM | 1.2 nM | 0.3 nM | 508 nM | – |
| >2.17 h | Cc1cccc2c(C(C)(C)NC(=O)[C@H]3[C@@H]4CNC[C@@H]43)n[nH]c12 [Example 93] | > 8690 nM | – | > 9630 nM | > 9770 nM | – | – | 7030 nM | – |
| >2.17 h | CC(C)(NC(=O)[C@H]1[C@@H]2CNC[C@@H]21)c1n[nH]c2ccccc12 [Example 94] | > 8690 nM | – | > 9630 nM | > 9770 nM | 15.9 nM | – | > 9480 nM | – |
| – | CC(C)(NC(=O)[C@H]1[C@@H]2CNC[C@@H]21)c1noc2c(F)cccc12 [Example 101] | > 8600 nM | > 2.17 h | > 9600 nM | > 9850 nM | 46.2 nM | 1.2 nM | > 9090 nM | – |
| – | Cc1cccc2c(C(C)(C)NC(=O)[C@H]3[C@@H]4CNC[C@@H]43)nn(C)c12 [Example 107] | > 8600 nM | > 2.17 h | > 9600 nM | > 9850 nM | – | – | 4300 nM | – |

| Half-life t1/2 [1] | Structure (SMILES) | Ki (human SSTR3) | half-life at 1 μM [1] | Ki (human SSTR2) | Ki (human SSTR5) | Ki (human SSTR4) | EC50 [2, 3] | Ki (human SSTR1) | EC50 ([2]; SSTR4 agonism EC50, cAMP assay) |
| --- | --- | --- | --- | --- | --- | --- | --- | --- | --- |
| – | Cc1cccn2c(C(C)(C)NC(=O)[C@H]3[C@@H]4CNC[C@@H]43)ncc12.Cl [Example 126] | > 8710 nM | > 2.17 h | > 9630 nM | > 9860 nM | 3 nM | – | 6630 nM | 0.4 nM |
| – | Cc1cccn2c(C(C)(C)NC(=O)[C@H]3[C@@H]4CNC[C@@H]43)nc(C3CC3)c12 [Example 128] | 6180 nM | > 2.17 h | > 9630 nM | > 9860 nM | 7.6 nM | 0.4 nM | 1100 nM | – |
| – | Cc1nc(C(C)(C)NC(=O)[C@H]2[C@@H]3CNC[C@@H]32)c2ccccc2n1 [Example 138] | > 8710 nM | > 2.17 h | > 9630 nM | > 9860 nM | 70.3 nM | 4.3 nM | 7360 nM | – |
| – | CC(C)(NC(=O)[C@H]1[C@@H]2CNC[C@@H]21)c1ncc2c(Cl)cccn12 [Example 143] | – | > 2.17 h | – | – | – | 0.3 nM | – | – |
| – | Cc1cccn2c(C3(NC(=O)[C@H]4[C@@H]5CNC[C@@H]54)CC3)ncc12 [Example 145] | – | > 2.17 h | – | – | – | 0.9 nM | – | – |
| – | CC(C)(NC(=O)[C@H]1[C@@H]2CNC[C@@H]21)c1ncc2c(C3CC3)cccn12 [Example 146] | – | > 2.17 h | – | – | – | 2.6 nM | – | – |
| – | Cc1nc(C(C)(C)NC(=O)[C@H]2[C@@H]3CNC[C@@H]32)c2cccc(C)c2n1 [Example 148] | > 8690 nM | > 2.17 h | > 9630 nM | > 9770 nM | 32.3 nM | – | 6670 nM | 1.1 nM |
| – | CC(C)(NC(=O)[C@H]1[C@@H]2CNC[C@@H]21)c1nc(C2CC2)c2c(F)cccn12 [Example 149] | – | > 2.17 h | – | – | – | 1 nM | – | – |
| – | Cc1cccn2c(C(C)(C)NC(=O)[C@H]3[C@@H]4CNC[C@@H]43)cnc12 [Example 150] | – | > 2.17 h | – | – | – | 0.9 nM | – | – |
| – | Cc1nc(C(C)(C)NC(=O)[C@H]2[C@@H]3CNC[C@@H]32)n2cccc(F)c12 [Example 151] | – | > 2.17 h | – | – | – | 0.6 nM | – | – |
| – | CC(C)(NC(=O)[C@H]1[C@@H]2CNC[C@@H]21)c1ncnc2c(Cl)cccc12 [Example 156] | – | > 2.17 h | – | – | – | 7.4 nM | – | – |
| – | Cc1cc(F)cn2c(C(C)(C)NC(=O)[C@H]3[C@@H]4CNC[C@@H]43)ncc12 [Example 158] | – | > 2.17 h | – | – | – | 0.8 nM | – | – |
| – | Cc1cccn2c([C@H](C)NC(=O)[C@H]3[C@@H]4CNC[C@@H]43)ncc12 [Example 159] | – | > 2.17 h | – | – | – | 15.4 nM | – | – |
| – | CC(C)(NC(=O)[C@H]1[C@@H]2CNC[C@@H]21)c1cnn2ccccc12 [Example 167] | – | > 2.17 h | – | – | – | 4.9 nM | – | – |
| – | CC(C)(NC(=O)[C@H]1[C@@H]2CNC[C@@H]21)c1cnn2c1CCCC2 [Example 168] | – | > 2.17 h | – | – | – | 47.3 nM | – | – |
